Data set [1] has as its system cortical neurons.
Method: Treatment with 1 μM PD 0332991 (obtained from Pfizer) was carried out for 12 h in complete medium; H2O2 was added at the indicated times and doses.
Analysis of neuronal survival and apoptosis. Neuronal viability was assessed by quantifying apoptotic nuclei following the treatments. Cells were fixed and stained with DNA-binding dye propidium iodide (PI) (10 μg/ml; Sigma), and the percentage of cells with apoptotic nuclei was calculated as described previously (Kruman, I. I., et al. 2002. J. Neurosci. 22:1752-1762; Tenneti, L. and S. A. Lipton. 2000. J Neurochem. 74:134-142). Nuclear staining was viewed and photographed using a Zeiss fluorescence microscope. Apoptosis was also determined by immunoblot analysis for activated (cleaved) caspase-3 (polyclonal; 1 μg/ml; Upstate Cell Signaling Solutions), cleaved Mcm3 (polyclonal, 1:200; Santa-Cruz), Mcm2 (BM28; monoclonal; 1:200; BD Biosciences), and fractin (cleaved β-actin; 1:3000; Chemicon) in cellular extracts from corresponding neuronal 5 cultures.
The subject of data set [2] is cortical neurons. As to conditions: 5 μM H2O2, 6 h; neutral comet assay; FIG. 2A.
Method: Single Cell Gel Electrophoresis (Comet assay). DNA damage was assessed using the alkaline or neutral single-cell gel electrophoresis (comet assay) method (Kruman, I. I., et al. 2004. Neuron. 41:549-561; Kruman, I. I., et al. 2002. J Neurosci. 22:1752-176229). We used the neutral comet assay which is specific for detecting DSBs (Wojewodzka, M., et al. 2002. Mutat Res. 518:9-20). Following treatment, neurons were scraped and cell suspensions (˜10,000 cells) were embedded into 0.5% low melting agarose on slides (Trevigen, Gaithersburg, Md.). After treatment with cold lysis buffer (Trevigen) containing 1% Triton X-100 and 10% DMSO, the slides were incubated for 1 h in freshly prepared electrophoresis buffer, 300 mM sodium acetate, 100 mM Tris HCl, pH 8.3 (neutral comet assay) or 300 mM NaOH, 1 mM EDTA, pH>13 (alkaline comet assay). Then electrophoresis was performed at 14V and 60 mA for 1 h (neutral comet assay) or at 25V and 300 mA for 30 min (alkaline comet assay) at 8° C., stained with SYBR green (Trevigen), and analyzed using an Olympus BX51 fluorescent microscope and the comet assay image analysis software (Loats Associates Inc.). […] Images of 50 randomly selected cells were analysed from each slide. […]
A further data set deals with pRb phosphorylation. The experiment in a line: pRb phosphorylation by Western blot in cortical neurons. It is filed as cell-based, rat. Conditions: 12 h pretreatment with 1 μM PD 0332991, then 100 μM H2O2 for 6 h; FIG. 4A. How it is done:
Immunoblot analyses. For total cell lysates, cortical neurons were lysed in ice-cold buffer consisting of 63 mM Tris, 2 mM EDTA, 2 mM EGTA, 2% sodium dodecyl sulfate, 10% glycerol, and a protease inhibitor cocktail (Sigma), pH 6.0. For the preparation of nuclear lysates (for analysis of cyclin D1 and γ-H2AX), cortical neurons were lysed in ice-cold buffer containing protease inhibitor cocktail (Sigma) and incubated with hydrochloric acid (0.2 M) on ice for 30 min.
As a loading control we used anti-β-actin or anti-glyceraldehyde-3-phosphate dehydrogenase (GAPDH) antibodies.
Protein bands were visualized with horseradish peroxidase-conjugated secondary antibodies (1:3000; Jackson Immunological Research Laboratories Inc.) and enhanced using chemiluminescence (ECL kit, Amersham Corp.). Densitometric analysis of the blots were performed using the Kodak software ID 3.5.3 USB, and the intensity of the signal (normalized to the β-actin signals) was expressed as a ratio of the control signals.

In a further data set the test system is primary cortical neurons. The data set is described as follows: H2O2-induced apoptosis in cultured cortical neurons (apoptotic nuclei count). Conditions: 12 h pretreatment with 1 μM PD 0332991, then 100 μM H2O2 for 18 h; Hoechst 33342; FIG. 4B. In kind it is cell-based, rat. The method, then: All experiments involving the use of animals were approved by the IACUC at the Georgetown University Medical Center, Washington, D.C. Primary cortical cell cultures were established from E18 Sprague-Dawley rats obtained from Jackson Laboratories.
Following dissociation by mild trypsinization and trituration, cells were seeded onto plastic dishes or chamber slides precoated with 0.025 μg/ml poly-L-lysine, at a density of 1.3×10^3 neurons/mm^2 in Neurobasal medium containing B-27 supplement, 1 mM HEPES, 2 mM […] and 0.001% gentamycin sulfate; fresh medium was replaced after 30 minutes.
Analysis of neuronal survival and apoptosis.

The next data set concerns CDK4 and CDK6. Conditions: Fry et al. 2004; cited from earlier work.
The test system of the next data set is tumor. Conditions: mice; cited from earlier work.
Another data set deals with ischemia models. As to conditions: in vivo; cited from earlier work.
The next data set concerns neuronal apoptosis. Conditions: in vitro; cited from earlier work.

Each structure is given as a SMILES string.

For `OO` [H2O2, hydrogen peroxide], the “apoptosis of cortical neurons” value in the data set with cortical neurons [1] (5 μM H2O2, by 24 h or 48 h) was “did not induce apoptosis”. Also, the “apoptotic death of cortical neurons” value in the data set with cortical neurons [1] (100 μM H2O2, FIG. 1) is recorded as “significant apoptotic death beginning by 9 h”. In addition, the “DNA damage (comet tails)” value in the data set on cortical neurons [2] is “significant increase of DNA damage”.

In the case of `CC(=O)c1c(C)c2cnc(Nc3ccc(N4CCNCC4)cn3)nc2n(C2CCCC2)c1=O` [PD 0332991], in the data set with pRb phosphorylation, the “phosphorylation of pRb” value is “down-regulates phosphorylation of pRb”. Moreover, the extent of apoptosis entry with primary cortical neurons is “significant reduction in the extent of apoptosis”. Besides, the “specificity as inhibitor of CDK4 and CDK6” value with CDK4 and CDK6 was “highly specific inhibitor of CDK4 and CDK6”. The tumor regression entry with tumor was “effective in causing tumor regression in mice”.

On to `CN1CC[C@H](c2c(O)cc(O)c3c(=O)cc(-c4ccccc4Cl)oc23)[C@H](O)C1` [flavopiridol], for which the “protection in ischemia models” value in the data set on ischemia models is on record as “protective”. Moreover, in the data set with neuronal apoptosis, the “prevention of neuronal apoptosis” value is listed as “very potent in preventing neuronal apoptosis in vitro”.
